≈ marks a conversion by molar mass, not a printed value. Where a SMILES comes first, the peptide text is derived from it. Where no end group is shown, it is not given here. [ ]: non-standard residue; d: D form. Phe(4-CF3) = N[C@@H](Cc1ccc(C(F)(F)F)cc1)C(=O)O; Bip = N[C@@H](Cc1ccc(-c2ccccc2)cc1)C(=O)O
Tests used:
A. baumannii B2367-12 = type: cell-based, Acinetobacter baumanii
Procedure: (§1) The antibacterial activities of the peptides were determined using the standard broth microdilution method (Mishra et al. (2012) J. Am. Chem. Soc., 134:12426-12429; Wang et al. (2005) Biol. Chem., 280:5803-5811). Briefly, the bacterial culture was treated with a series of peptide solutions, each with two-fold dilution. After overnight incubation at 37° C., the microplate was read on a ChroMate® 4300 Microplate Reader at 630 nm (GMI, Ramsey, Minn.).

ESKAPE pathogens = type: cell-based
Procedure: as §1
A rational design was conducted on the basis of the 3D structure of GF-17d3. […] The noncoherent packing of the GF-17d3 side chains caused a hydrophobic defect in the structure (FIGS. 8C and 8D, arrow), leading to reduced hydrophobicity. Accordingly, it was hypothesized that the antimicrobial activity of this peptide 17F2 (sequence GX1KRLVQRLKDX2LRNLV (SEQ ID NO: 58), Table 9) could be enhanced by filling in the hydrophobic cavity (FIG. 8D, arrow) with a larger hydrophobic side chain. The antimicrobial activities of these peptide analogues were evaluated using the standard microdilution assays (Mishra et al. (2012) J. Am. Chem. Soc., 134:12426-12429), and the minimal inhibitory concentrations (MIC) against a panel of the ESKAPE pathogens are provided in Table 10. […] To compare the two sites, these two substitutions at positions X1 and X2 were swapped to obtain 17Naph-mF. […] In addition, biphenylalanines were incorporated at position X1 alone or at both X1 and X2 of the 17F2 template. […] The killing abilities of these peptides are essentially proportional to their MIC values as well as retention times (a measure of hydrophobicity) on a reverse-phase HPLC column (Mishra et al. (2012) J. Am. Chem. Soc., 134:12426-12429).

Escherichia coli K12 = conditions: Table 8
E. cloacae B2366-12 = type: cell-based; conditions: B2366-12
Procedure: as §1

[1] = system: Pseudomonas aeruginosa PAO1; type: cell-based
Procedure: (§2) The bacterial strains used in the study are Bacillus subtilis 168, methicillin-resistant Staphylococcus aureus USA300 LAC (Gram-positive), Escherichia coli K12, and Pseudomonas aeruginosa PAO1 (Gram negative). The antibacterial activities of the peptides were determined using the standard broth microdilution method (Wang et al. (2005) J. Biol. Chem., 280:5803-5811). In brief, the bacterial culture (90 μL) was treated with a series of peptide solutions (10 μL), each with two-fold dilution. After overnight incubation at 37° C., the microplate was read on a ChroMate® 4300 Microplate Reader at 630 nm (GMI, Ramsey, Minn.).
(§3) For the initial screen, antimicrobial activities of these peptides against S. aureus and E. coli were evaluated using the standard broth microdilution protocol (Wang, G. (2008) J. Biol. Chem., 283:32637-43). […] Subsequently, the in vitro activity of these six peptides was evaluated against Bacillus subtilis and Pseudomonas aeruginosa (Table 6). […] While maculatin 1.3 is active against two Gram-positive but not two Gram-negative bacterial strains, DASamP1 is species-specific since it active only against S. aureus. The finding that ascaphin-8, […], and piscidin 1 are wide-spectrum AMPs agrees with the literature (Apponyi et al. (2004) Peptides 25:1035-1054; Conlon et al. (2004) Biochem. Biophys. Res. Commun., 320:170-175; Silphaduang et al. (2001) Nature 414:268-269; Souza et al. (2005) J. Immunol., 186:6585-6596). For lycotoxin I, it was previously found to active against Gram-negative E. coli and yeast (Yan et al. (1998) J. Biol. Chem., 273:2059-2066).
as §1

[2] = system: methicillin-resistant Staphylococcus aureus USA300 LAC; conditions: for MIC (μM) SA: S. aureus USA300 LAC, Table 10; for S. aureus USA 300 MIC: Table 8
Procedure: This was done by modifying the standard microdilution antimicrobial assays (Wang, G. (2008) J. Biol. Chem., 283:32637-32643). Specifically, the bacterial wells with a high peptide concentration (e.g. 100 μM) are duplicated (e.g., two for antimicrobial assays and two for protease stability assays). As an illustration, chymotrypsin was applied to the duplicated wells at a peptide:protease molar ratio of 25:1.

E. faecium ATCC51559 = type: cell-based, Enterococcus faecium; conditions: ATCC51559
Procedure: as §1

human erythrocytes = conditions: for HL50 (μM), peptide concentration that causes 50% lysis of human erythrocytes: Table 10
Procedure: (§4) Peptide hemolysis was assayed using an established protocol (Malmsten et al. (2011) PLoS One 6:e16400). In brief, fresh blood, obtained from the UNMC Blood Bank, was washed three times with PBS buffer and made into a 5% solution. To 90 μL of this solution, 10 μL of a peptide solution was added and incubated at 37° C. for one hour. After centrifugation at 13,000 rpm, aliquots of the supernatant were transferred to a fresh 96 well microplate. The absorbance of the solutions was measured at 545 nm to detect the amount of hemoglobin released. The percent lysis was calculated by assuming 100% release when treated with 2% Triton X-100 and no lysis (0%) when treated with PBS buffer. HL50 was the peptide concentration that caused 50% lysis of human erythrocytes. The cell selectivity (CS) indexes were calculated as the ratio of HL50 to the MIC of the peptide against S. aureus USA300.
(§5) The hemolytic effects of the six peptides were also compared on human red blood cells (hRBC) using an established protocol (Malmsten et al. (2011) PLoS One 6:e16400). […] A high TI indicates good cell selectivity.
(§6) Peptide hemolysis was assayed using an established protocol (Menousek et al. (2012) Int. J. Antimicrob. Agents 39:402-406; Malmsten et al. (2011) PLoS One 6:e16400). Briefly, blood cells were washed three times with phosphate-buffered saline (PBS) and were diluted to a 5% solution. Following peptide treatment, incubation at 37° C. for 1 hour and centrifugation at 13,000 rpm, aliquots of the supernatant were transferred to a fresh 96-well microplate. To assess peptide cytotoxicity, the amount of hemoglobin released was measured at 545 nm. Percent lysis was calculated by assuming 100% release when human blood cells were treated with 2% Triton X-100 and 0% release when they were incubated with PBS buffer.

[3] = human, hemolysis, at 160 μM, human red blood cells
Procedure: as §4, §5, §6

chymotrypsin = chymotrypsin (Bos taurus, UniProt P00766); assay: Peptide stability to chymotrypsin by SDS-PAGE; type: in vitro ADME, bovine; conditions: for time the peptide stays intact in the presence of chymotrypsin: 12.5 μM chymotrypsin, peptide/protein 40:1, PBS pH 8, 37° C.
Procedure: A solution (100 μl) of the peptide and 12.5 μM chymotrypsin (peptide/protein molar ratio, 40:1) in 10 mM PBS buffer (pH 8) was incubated at 37° C. Aliquots (10 μl) of the reaction solutions were taken at 0, 2, 4, and 22 hours and immediately mixed with 20 μl of 2×SDS loading buffer to stop the reaction. For the gel analysis, 10 μl of each sample was loaded to the well of a 5% stacking/18% resolving tricine gel. The samples in the lanes are: 1, protein marker; 2, temporin-PTa L-form at 0 hour; 3, 2 hours; 4, 4 hours; 5, 22 hours; 6, temporin-PTa D-form at 0 hour; 7, 2 hours; 8, 4 hours; 9, 22 hours. In the gel, the bands for the peptide and chymotrypsin were indicated with large and small arrows, respectively. Note that the peptide bands were not detected in lanes 3-5 due to protease cleavage but remained essentially constant in lanes 7-9.
Peptide stability was evaluated using standard SDS-PAGE (described in FIG. 5).
(§7) Peptide stability was evaluated based on a published protocol (Mishra et al. (2012) J. Am. Chem. Soc., 134:12426-12429) with one modification. Aliquots (10 μL) of the reaction solutions (peptide/protease molar ratio, 40:1) in 10 mM PBS buffer (pH 8) at 37° C. were taken at 0, 6, and 24 hours and immediately mixed with 10 μL of 2×SDS loading buffer followed by boiling for 5 minutes to stop the reaction. Samples were analyzed using 5% stacking/18% resolving tricine gel.

fungal protease K = fungal protease K (Parengyodontium album, UniProt P06873); assay: Peptide stability to fungal protease K by SDS-PAGE; type: in vitro ADME; conditions: peptide/protease 40:1, PBS pH 8, 37° C.
Sequence of fungal protease K (P06873 106-384): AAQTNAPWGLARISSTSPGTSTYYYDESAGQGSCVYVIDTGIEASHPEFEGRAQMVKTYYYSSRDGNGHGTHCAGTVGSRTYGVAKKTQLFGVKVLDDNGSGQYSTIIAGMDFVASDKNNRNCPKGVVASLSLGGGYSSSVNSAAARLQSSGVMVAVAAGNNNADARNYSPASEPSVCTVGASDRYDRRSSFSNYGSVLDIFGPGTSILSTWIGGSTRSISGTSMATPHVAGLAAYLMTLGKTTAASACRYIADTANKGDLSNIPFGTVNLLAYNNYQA
Procedure: (§8) FIG. 10 provides a stability comparison of synthetic 17BIPHE2 with GF-17 in the presence of bovine chymotrypsin, porcine trypsin, S. aureus protease V8, and fungal protease K. Two samples were analyzed in this gel for each protease: 0 and 6 hours for GF-17 and 0 and 24 hours for 17BIPHE2.
as §7

S. aureus V8 protease = S. aureus V8 protease (Staphylococcus aureus, UniProt P0C1U8); type: in vitro ADME; conditions: peptide/protease 40:1, PBS pH 8, 37° C.
Sequence of S. aureus V8 protease (P0C1U8 69-336): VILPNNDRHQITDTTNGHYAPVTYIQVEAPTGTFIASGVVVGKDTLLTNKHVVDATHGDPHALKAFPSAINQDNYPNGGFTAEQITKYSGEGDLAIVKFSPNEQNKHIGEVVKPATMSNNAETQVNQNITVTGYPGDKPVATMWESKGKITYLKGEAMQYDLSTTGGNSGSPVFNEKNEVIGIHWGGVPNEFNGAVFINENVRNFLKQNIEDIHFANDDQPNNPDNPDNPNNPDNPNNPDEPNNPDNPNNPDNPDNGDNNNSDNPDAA
Procedure: as §8, §7

Bacillus subtilis 168 = type: cell-based
Procedure: as §2, §3

[4] = Peptide solubility (observation); type: physicochemical

CC(C)C[C@H](NC(=O)[C@H](CC(N)=O)NC(=O)[C@H](CCCNC(=N)N)NC(=O)[C@@H](CC(C)C)NC(=O)[C@H](Cc1ccccc1)NC(=O)[C@H](CC(=O)O)NC(=O)[C@H](CCCCN)NC(=O)[C@@H](CC(C)C)NC(=O)[C@H](CCCNC(=N)N)NC(=O)[C@H](CCC(N)=O)NC(=O)[C@@H](NC(=O)[C@@H](CC(C)C)NC(=O)[C@H](CCCNC(=N)N)NC(=O)[C@H](CCCCN)NC(=O)[C@H](Cc1ccc(C(F)(F)F)cc1)NC(=O)CN)C(C)C)C(=O)N[C@H](C(N)=O)C(C)C [B128A, GX1KRLVQRLKDX2LRNLV-amide] (H-G[Phe(4-CF3)]KR[dL]VQR[dL]KDF[dL]RNLV-NH2)
MIC (μM) AB (A. baumannii B2367-12): 3.1 to 6.2 µM
MICs against most of the ESKAPE strains (ESKAPE pathogens; most of the ESKAPE strains): 25 to 50 µM
E. coli K12 MIC (Escherichia coli K12): 5 µM
MIC (μM) EC (E. cloacae B2366-12): 25 µM (≈ 54.2 µg/mL)
MIC (μM) PA [1]: 25 µM (≈ 54.2 µg/mL)
MIC (μM) SA [2]: 25 µM (≈ 54.2 µg/mL)
S. aureus USA 300 MIC [2]: 40 µM
MIC (μM) EF (E. faecium ATCC51559): 25 to 50 µM
HL50 (μM), peptide concentration that causes 50% lysis of human erythrocytes (human erythrocytes): >900 µM
hemolysis (human erythrocytes; human, 160 µM): <5%
hemolysis at 160 µM [3]: 3 to 5%

CC(C)C[C@H](NC(=O)[C@H](CC(N)=O)NC(=O)[C@H](CCCNC(=N)N)NC(=O)[C@@H](CC(C)C)NC(=O)[C@H](Cc1ccc(-c2ccccc2)cc1)NC(=O)[C@H](CC(=O)O)NC(=O)[C@H](CCCCN)NC(=O)[C@@H](CC(C)C)NC(=O)[C@H](CCCNC(=N)N)NC(=O)[C@H](CCC(N)=O)NC(=O)[C@@H](NC(=O)[C@@H](CC(C)C)NC(=O)[C@H](CCCNC(=N)N)NC(=O)[C@H](CCCCN)NC(=O)[C@H](Cc1ccc(-c2ccccc2)cc1)NC(=O)CN)C(C)C)C(=O)N[C@H](C(N)=O)C(C)C [D128A, GX1KRLVQRLKDX2LRNLV-amide] (H-G[Bip]KR[dL]VQR[dL]KD[Bip][dL]RNLV-NH2)
MIC (μM) AB (A. baumannii B2367-12): 3.1 µM (≈ 6.99 µg/mL)
level of intact peptide in the presence of chymotrypsin (chymotrypsin; during 4 hours): remained constant
MIC against all of the ESKAPE pathogens (ESKAPE pathogens): 3.1 to 6.2 µM
time stable in the presence of fungal protease K (fungal protease K): at least 24 hours
time stable in the presence of S. aureus V8 protease (S. aureus V8 protease): at least 24 hours
E. coli K12 MIC (Escherichia coli K12): 2.5 µM
MIC (μM) EC (E. cloacae B2366-12): 3.1 µM (≈ 6.99 µg/mL)
MIC (μM) PA [1]: 6.2 µM (≈ 14 µg/mL)
MIC (μM) SA [2]: 3.1 µM (≈ 6.99 µg/mL)
S. aureus USA 300 MIC [2]: 5 µM
MIC (μM) EF (E. faecium ATCC51559): 3.1 µM (≈ 6.99 µg/mL)
HL50 (μM), peptide concentration at which 50% human red blood cells were lysed (human erythrocytes; Table 8): 150 µM
HL50 (μM), peptide concentration that causes 50% lysis of human erythrocytes (human erythrocytes): 225 µM

CC[C@@H](C)[C@@H](NC(=O)[C@@H](CCCCN)NC(=O)[C@H]1CCCN1C(=O)[C@H](NC(=O)[C@@H](CC(C)C)NC(=O)[C@@H](CCCCN)NC(=O)[C@@H](CC(C)C)NC(=O)[C@H](NC(=O)[C@@H](CO)NC(=O)CNC(=O)[C@@H](Cc1ccccc1)NC(=O)[C@H](N)Cc1ccccc1)C(C)C)[C@H](C)CC)C(=O)N[C@H](CC(C)C)C(N)=O [Temporin-PTa (D-form)]
time the peptide stays intact in the presence of chymotrypsin (chymotrypsin): at least 22 hours
MIC (μM) BS (Bacillus subtilis 168): 6.25 µM (≈ 9.21 µg/mL)
MIC (μM) PA [1]: >100 µM

CC[C@H](C)[C@H](NC(=O)[C@H](CCCCN)NC(=O)[C@@H]1CCCN1C(=O)[C@@H](NC(=O)[C@H](CC(C)C)NC(=O)[C@H](CCCCN)NC(=O)[C@H](CC(C)C)NC(=O)[C@@H](NC(=O)[C@H](CO)NC(=O)CNC(=O)[C@H](Cc1ccccc1)NC(=O)[C@@H](N)Cc1ccccc1)C(C)C)[C@@H](C)CC)C(=O)N[C@@H](CC(C)C)C(N)=O [Temporin-PTa, reference compound]
time the peptide stays intact in the presence of chymotrypsin (chymotrypsin): ≤ 2 h

FFGSLLKLLPKLL-NH2 [Temporin-PTa6L]
MIC (μM) BS (Bacillus subtilis 168): 3.12 µM

GIIPIISIIGKII-NH2 (C-terminus assumed) [DFTamP1-pi]
solubility [4]: poorly soluble

LLGSLLKLLPKLL-NH2 [Temporin-PTa8L]
MIC (μM) BS (Bacillus subtilis 168): 3.12 µM
MIC (μM) PA [1]: >100 µM
